biological target: Carbonic anhydrase 9 (Homo sapiens, UniProt Q16790)

Structure (SMILES)	Ki
NS(=O)(=O)c1nnc(NC(=O)CCS)s1	3.6 nM
NS(=O)(=O)c1ccc(CCNC(=O)CCSSCCC(=O)NCCc2ccc(S(N)(=O)=O)cc2)cc1	71 nM
Cn1nc(S(N)(=O)=O)s/c1=N/C(=O)CCSSCCC(=O)/N=c1/sc(S(N)(=O)=O)nn1C	9.3 nM

Reference: ChEMBL document CHEMBL1149486, “Carbonic anhydrase inhibitors: Hypoxia-activatable sulfonamides incorporating disulfide bonds that target the tumor-associated isoform IX” (J Med Chem, 2006)
